Assay results reported in publication PMC9763333, “In vitro characterization of immune modulating drug-eluting immunobeads towards transarterial embolization in cancer” (Scientific Reports, 2022).
Several values for one entry are separate records, joined by “and”; a condition that tells them apart may be missing. Equal values may be shown once. Entries after “also recorded” stand apart in the source; their conditions may differ. Where a name gives a salt, the structure may show the parent alone. Blank lines part the entries; values can stand above or below the molecule they belong to.

Legend:
[1] = cited from earlier work
[2] = Drug release from DC Bead LUMI in saline; type: physicochemical; details: for percent drug eluted from DC Bead LUMI / drug eluted from DC Bead LUMI: saline, single replicates; for percent drug eluted from DC Bead LUMI: percent of drug loaded; for release behaviour in saline: DC Bead LUMI
In short: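 Beads loaded with drug (62.5 µL of DC Bead LUMI) were placed in 50 mL of saline (0.9 mg/mL, pH 7.4) and rocked upright at 37 °C at speed setting 10 (70 rpm). At each sampling time, 1 mL of medium was taken for drug quantification and replaced with 1 mL of fresh saline pre-warmed to 37 °C. Cumulative release accounted for drug removed in earlier samples, and the 50 mL volume kept sink conditions.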

[3] = Drug solubilization by salt formation in acid; type: physicochemical; details: for pH at which each drug dissolved for loading: T in °C in parentheses in the cell (20.1 or 21.1)
In short: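 Drug base suspended in water and titrated with 0.1 N HCl until dissolved, at a final 2.5 mg/mL; solution lyophilized to the hydrochloride salt or used directly for DC Bead LUMI loading. GS-9620 and its decomposition product analyzed by C8 reversed-phase HPLC (UV 230 nm) and LC/MS.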

[4] = Drug loading into DC Bead LUMI; type: physicochemical; details: for Relative percent drug loaded in DC Bead LUMI over time / Maximum drug loaded (Triplicate), %: single replicates; for equivalent of drug loaded to sulfonated bead / Maximum drug loaded: mean ± SD; for Maximum drug loaded: n = 3, base form except Dox (salt form); for Drug: sulfonate: molar ratio at maximum loading; for Theoretical maximum loading level based on SO3− contents: per mL DC Bead LUMI, assuming 1:1 drug to sulfonate
In short: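 Loading done in triplicate; amount loaded = initial drug in loading solution minus drug remaining and cumulative drug withdrawn for sampling. Maximum loading taken when loading-solution concentration stopped changing, before washing; relative % loading expressed on a molar basis against available SO3^- ions, mean ± SD.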

[5] = Drug loading into LC Bead; type: physicochemical; details: per 1 mL LC Bead
Description: Drug loading was performed in triplicate as previously reported[45] with slight modifications. Briefly, 1.3 molar equivalent of each drug was mixed with one molar equivalent of sulfonate group of DC Bead LUMI or LC Bead. The drug-bead mixture was agitated with upright rocking motion at a set maximum rocking speed of 10 which corresponds to 70 rpm, for 144 h at ambient temperature (Ward's® Rotating Mixers, VWR, Bridgeport, NJ). At specified time points (5, 15, 30 and 45 min and then hourly for eight hours followed by 24, 48, 72 and 144 h) a 10 µL aliquot was withdrawn from the loading solution to quantify drug loading based on the change in concentration over time. […] The concentration of drug in each aliquot of loading solution at each time point was quantified by HPLC as described above using a linear standard curve obtained from solutions of known concentration of each drug (7.8–125 μg/mL) versus the detector response as area under the curve. The amount of drug loaded at the specified time points was calculated by subtracting the amount of drug remaining from the initial amount of drug in the loading solution and the cumulative amount of drug withdrawn for sampling. The maximum drug loaded in the beads was calculated once no further change in the concentration in the loading solution could be measured and before washing the beads. […]

[6] = design: method as in PMID 17483878; details: cited from earlier work
[7] = design: method as in PMID 28188808; details: 0.065 mmol Dox per milliliter of beads, constant agitation, depending on bead size; cited from earlier work

percent drug eluted from DC Bead LUMI ([2]; 5 min): 2.472% and 2.4176% and 2.385%
drug eluted from DC Bead LUMI ([2]; 5 min): 8.513 µmol and 8.629 µmol and 8.378 µmol
percent drug eluted from DC Bead LUMI ([2]; 15 min): 2.589% and 2.639% and 2.416%
percent drug eluted from DC Bead LUMI ([2]; 30 min): 2.762% and 2.728% and 2.934%
percent drug eluted from DC Bead LUMI ([2]; 45 min): 3.33% and 2.98% and 3.1337%
percent drug eluted from DC Bead LUMI ([2]; 60 min): 3.248% and 3.3497% and 3.385%
percent drug eluted from DC Bead LUMI ([2]; 120 min): 4.556% and 3.526% and 4.046%
percent drug eluted from DC Bead LUMI ([2]; 180 min): 5.055% and 4.61% and 4.461%
percent drug eluted from DC Bead LUMI ([2]; 240 min): 5.272% and 4.993% and 5.201%
percent drug eluted from DC Bead LUMI ([2]; 300 min): 5.575% and 5.37% and 5.345%
percent drug eluted from DC Bead LUMI ([2]; 360 min): 6.559% and 5.753% and 6.275%
percent drug eluted from DC Bead LUMI ([2]; 420 min): 6.666% and 5.904% and 7.0124%
percent drug eluted from DC Bead LUMI ([2]; 480 min): 7.32% and 7.2% and 7.286%
percent drug eluted from DC Bead LUMI ([2]; 1440 min): 11.7204% and 10.5374% and 10.9377%
percent drug eluted from DC Bead LUMI ([2]; 2880 min): 14.9312% and 14.241% and 13.8435%
percent drug eluted from DC Bead LUMI ([2]; 4320 min): 16.6252% and 15.679% and 15.9706%
percent drug eluted from DC Bead LUMI ([2]; 8640 min): 17.1401% and 16.2829% and 16.6995%
solubilization upon addition of 0.1 N HCl ([3]; 0.1 N HCl, deionized water): did not solubilize
pH at which each drug dissolved for loading [3]: 2.11 (20.1)
Relative percent drug loaded in DC Bead LUMI over time ([4]; 5 min): 36.8467% and 31.5632% and 21.322%
Relative percent drug loaded in DC Bead LUMI over time ([4]; 15 min): 30.3231% and 39.2476% and 47.138%
Relative percent drug loaded in DC Bead LUMI over time ([4]; 30 min): 47.9681% and 46.426% and 44.5676%
Relative percent drug loaded in DC Bead LUMI over time ([4]; 45 min): 56.9526% and 51.0915% and 54.8687%
Relative percent drug loaded in DC Bead LUMI over time ([4]; 60 min): 63.8406% and 58.0947% and 63.6687%
Relative percent drug loaded in DC Bead LUMI over time ([4]; 120 min): 85.531% and 84.4265% and 85.0145%
Relative percent drug loaded in DC Bead LUMI over time ([4]; 180 min): 98.296% and 98.7957% and 94.8002%
Relative percent drug loaded in DC Bead LUMI over time ([4]; 240 min): 106.342% and 112.145% and 106.321%
Relative percent drug loaded in DC Bead LUMI over time ([4]; 300 min): 111.107% and 116.727% and 112.613%
Relative percent drug loaded in DC Bead LUMI over time ([4]; 360 min): 115.109% and 120.479% and 108.292%
Relative percent drug loaded in DC Bead LUMI over time ([4]; 420 min): 117.263% and 122.293% and 119.836%
Relative percent drug loaded in DC Bead LUMI over time ([4]; 480 min): 118.462% and 124.442% and 121.713%
Relative percent drug loaded in DC Bead LUMI over time ([4]; 1440 min): 121.282% and 124.78% and 117.021%
Relative percent drug loaded in DC Bead LUMI over time ([4]; 2880 min): 119.234% and 124.78% and 122.668%
Relative percent drug loaded in DC Bead LUMI over time ([4]; 4320 min): 118.18% and 124.96% and 121.21%
Relative percent drug loaded in DC Bead LUMI over time ([4]; 8640 min): 119.5% and 124.96% and 122.329%
drug loaded above the predicted capacity of the bead ([4]; DC Bead LUMI): approximately 23%
loading behaviour ([4]; DC Bead LUMI): slower loading
Relative percent drug loaded (maximum, percent of SO3− available on a molar basis) ([4]; DC Bead LUMI, mean (n = 3), listed as BMS-200): 122.93%
equivalent of drug loaded to sulfonated bead ([4]; DC Bead LUMI): 0.35 ± 0.01 mM drug/ml beads
Maximum drug loaded ([4]; DC Bead LUMI): 148.05 ± 2.24 mg drug/ml beads
Maximum drug loaded (Triplicate), % ([4]; DC Bead LUMI, listed as BMS-200): 121.282% and 124.83% and 122.668%
Drug: sulfonate ([4]; DC Bead LUMI): 1.223
Theoretical maximum loading level based on SO3− contents [4]: 120.40 mg and 120.4 mg
Structure (SMILES): COc1nc(OCc2cccc(-c3ccccc3)c2C)ccc1CNCCNC(C)=O [BMS-202]
pKa (literature) [1]: 7.74 (literature) [54]
drug eluted from DC Bead LUMI ([2]; 15 min): 8.915 µmol and 9.4174 µmol and 8.488 µmol
drug eluted from DC Bead LUMI ([2]; 30 min): 9.513 µmol and 9.737 µmol and 10.3104 µmol
drug eluted from DC Bead LUMI ([2]; 45 min): 11.4676 µmol and 10.637 µmol and 11.0105 µmol
drug eluted from DC Bead LUMI ([2]; 60 min): 11.1858 µmol and 11.9555 µmol and 11.8939 µmol
drug eluted from DC Bead LUMI ([2]; 120 min): 15.688 µmol and 12.584 µmol and 14.2155 µmol
drug eluted from DC Bead LUMI ([2]; 180 min): 17.4074 µmol and 16.4551 µmol and 15.6742 µmol
drug eluted from DC Bead LUMI ([2]; 240 min): 18.1541 µmol and 17.8191 µmol and 18.2734 µmol
drug eluted from DC Bead LUMI ([2]; 300 min): 19.198 µmol and 19.1657 µmol and 18.7818 µmol
drug eluted from DC Bead LUMI ([2]; 360 min): 22.5859 µmol and 20.5327 µmol and 22.0468 µmol
drug eluted from DC Bead LUMI ([2]; 420 min): 22.954 µmol and 21.073 µmol and 24.6387 µmol
drug eluted from DC Bead LUMI ([2]; 480 min): 25.2083 µmol and 25.6984 µmol and 25.5995 µmol
drug eluted from DC Bead LUMI ([2]; 1440 min): 40.3605 µmol and 37.6096 µmol and 38.4305 µmol
drug eluted from DC Bead LUMI ([2]; 2880 min): 51.4172 µmol and 50.828 µmol and 48.6405 µmol
drug eluted from DC Bead LUMI ([2]; 4320 min): 57.2509 µmol and 55.9606 µmol and 56.1142 µmol
drug eluted from DC Bead LUMI ([2]; 8640 min): 59.0238 µmol and 58.1158 µmol and 58.6753 µmol
release behaviour in saline [2]: slow release; also recorded: prolonged release profile

drug eluted from DC Bead LUMI ([2]; 30 min): 1.239 µmol and 1.282 µmol and 1.112 µmol
drug eluted from DC Bead LUMI ([2]; 60 min): 1.899 µmol and 1.906 µmol and 1.678 µmol
drug eluted from DC Bead LUMI ([2]; 120 min): 3.985 µmol and 3.46 µmol and 3.165 µmol
drug eluted from DC Bead LUMI ([2]; 240 min): 7.976 µmol and 7.077 µmol and 7.054 µmol
drug eluted from DC Bead LUMI ([2]; 300 min): 9.987 µmol and 9.178 µmol and 9.242 µmol
release behaviour in saline [2]: slow release
Dox released from DC Bead LUMI ([2]; Figure 11 legend, mean ± SD, n = 3): 74.4 ± 0.5 µmol Dox/ mL DC Bead LUMI
average amount of Dox loaded into 1 mL of LC Bead [5]: 33.58 ± 3.08 mg
pH at which each drug dissolved for loading [3]: 4.2 (21.1)
drug loaded above the predicted capacity of the bead ([4]; DC Bead LUMI): approximately 23%
loading behaviour ([4]; DC Bead LUMI): slower loading
equivalent of drug loaded to sulfonated bead ([4]; DC Bead LUMI): 0.35 ± 0.01 mM drug/ml beads
Maximum drug loaded ([4]; DC Bead LUMI, listed as Doxorubicin HCl): 204.54 ± 3.87 mg drug/ml beads
Maximum drug loaded (Triplicate), % ([4]; DC Bead LUMI): 121.32% and 125.547% and 121.757%
Drug: sulfonate ([4]; DC Bead LUMI): 1.228
Theoretical maximum loading level based on SO3− contents [4]: 166.50 mg
Theoretical maximum loading level based on SO3− contents ([4]; listed as Doxorubicin HCl): 166.5 mg
Structure (SMILES): COc1cccc2c1C(=O)c1c(O)c3c(c(O)c1C2=O)C[C@@](O)(C(=O)CO)C[C@@H]3O[C@H]1C[C@H](N)[C@H](O)[C@H](C)O1 [Dox, doxorubicin hydrochloride]
drug eluted from DC Bead LUMI ([2]; 5 min): 0.8697 µmol and 0.7574 µmol and 0.6743 µmol
drug eluted from DC Bead LUMI ([2]; 15 min): 0.9785 µmol and 0.9763 µmol and 0.879 µmol
drug eluted from DC Bead LUMI ([2]; 45 min): 1.546 µmol and 1.5359 µmol and 1.496 µmol
drug eluted from DC Bead LUMI ([2]; 180 min): 6.141 µmol and 6.4405 µmol and 5.733 µmol
drug eluted from DC Bead LUMI ([2]; 360 min): 12.6965 µmol and 11.2108 µmol and 10.9569 µmol
drug eluted from DC Bead LUMI ([2]; 420 min): 14.5125 µmol and 12.8898 µmol and 12.4195 µmol
drug eluted from DC Bead LUMI ([2]; 480 min): 16.4266 µmol and 14.4776 µmol and 14.2688 µmol
drug eluted from DC Bead LUMI ([2]; 1440 min): 47.172 µmol and 44.3546 µmol and 42.6335 µmol
drug eluted from DC Bead LUMI ([2]; 2880 min): 68.0842 µmol and 61.0855 µmol and 60.2496 µmol
drug eluted from DC Bead LUMI ([2]; 4320 min): 76.8802 µmol and 71.2335 µmol and 68.2708 µmol
drug eluted from DC Bead LUMI ([2]; 8640 min): 74.6523 µmol and 73.8043 µmol and 71.6405 µmol
previously reported amount of Dox loaded into LC Bead [6]: 39.0 ± 3.8 mg/mL
time to load drug to DC Bead LUMI [7]: 2 to 3 h
Maximum drug loaded ([4]; DC Bead LUMI): 204.54 ± 3.87 mg drug/ml beads and 205 ± 4 mg drug/ml beads
